Experiments:
[1] = target: T1, Tyrosine-protein kinase receptor UFO (Homo sapiens, UniProt P30530); experiment: Inhibition of recombinant human His-tagged AXL expressed in insect cells after 60 mins by Z'-LYTE assay
T1 sequence (P30530 whole entry): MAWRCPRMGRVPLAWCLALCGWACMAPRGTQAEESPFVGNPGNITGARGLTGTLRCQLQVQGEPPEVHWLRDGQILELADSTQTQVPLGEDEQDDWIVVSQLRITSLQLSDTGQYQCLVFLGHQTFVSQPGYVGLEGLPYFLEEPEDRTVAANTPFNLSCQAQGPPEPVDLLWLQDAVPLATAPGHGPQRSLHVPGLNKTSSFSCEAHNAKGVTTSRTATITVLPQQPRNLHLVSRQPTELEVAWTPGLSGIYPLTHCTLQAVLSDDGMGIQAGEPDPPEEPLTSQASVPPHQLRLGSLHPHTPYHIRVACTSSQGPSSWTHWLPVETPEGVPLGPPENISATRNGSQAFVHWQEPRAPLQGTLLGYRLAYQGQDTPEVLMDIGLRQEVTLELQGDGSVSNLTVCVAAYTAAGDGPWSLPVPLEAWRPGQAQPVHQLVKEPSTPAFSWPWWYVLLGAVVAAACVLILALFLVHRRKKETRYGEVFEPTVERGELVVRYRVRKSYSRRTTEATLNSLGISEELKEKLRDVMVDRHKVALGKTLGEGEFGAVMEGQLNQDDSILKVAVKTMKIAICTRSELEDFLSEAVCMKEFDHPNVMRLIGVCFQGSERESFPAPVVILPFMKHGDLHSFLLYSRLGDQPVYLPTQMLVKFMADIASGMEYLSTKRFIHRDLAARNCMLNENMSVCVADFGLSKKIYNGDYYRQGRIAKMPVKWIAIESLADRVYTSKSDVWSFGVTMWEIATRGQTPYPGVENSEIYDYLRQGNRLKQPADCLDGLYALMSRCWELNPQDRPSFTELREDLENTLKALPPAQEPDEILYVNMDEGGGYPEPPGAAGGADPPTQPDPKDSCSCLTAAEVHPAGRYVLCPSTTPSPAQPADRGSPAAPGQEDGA

[2] = target: Tyrosine-protein kinase receptor UFO (Homo sapiens) (UniProt P30530); details: 1 uM
Description: Inhibition of recombinant human His-tagged AXL expressed in insect cells at 1 uM after 60 mins by Z'-LYTE assay relative to control

| IC50 [1] | inhibition [2] | SMILES |
| --- | --- | --- |
| > 1000 nM | – | O=C(O)c1cc(-c2c[nH]c3ncc(-c4ccccc4)cc23)ccc1F |
| 524 nM | 75% | c1ccc(-c2cnc3[nH]cc(-c4ccc(-c5nnn[nH]5)cc4)c3c2)cc1 |
| 182 nM | – | O=C(O)c1ccc(-c2c[nH]c3ncc(-c4ccccc4)cc23)cc1 |
